Reference: patent US20050191693A1, “Methods and cell populations for identifying and validating genomic targets, and for drug screening” (priority 2001, published 2005)
Read-outs that look alike come from different tables or passages of the source.

Key:
[1] = system: ES-cell derived cardiomyocytes; assay: Beating frequency of ES cell-derived cardiomyocytes (contractions counted manually during 15 sec); format: cell-based, mouse; settings: cardiomyocytes 25 days after start of differentiation
Procedure: Gated cardiomyocytes where cultivated in 6 cm tissue culture dishes. Fresh medium was supplemented with the test compound in concentrations ranging from 0.01-10 μM. For heat shock treatment the cells where incubated at 42° C. for 30 min. Mock treated cells served as control. Effects on the cardiomyocyte beating rate where recorded by manually counting the number of contractions during 15 sec. Beating rates have been recorded before addition of substances and 15 min and 4h after addition. After 4h of incubation the cells where washed with PBS, collected in reporter lysis buffer (RLB, Promega) and stored at −80° C.
Effects of noradrenaline are mediated via alpha and beta-adrenergic receptors, while isoproterenol effects are mediated specific via β-adrenergic receptors. Since β1 receptors play a pivotal role in mediating the beating rate, we analyzed changes in beating frequency of cardiomyocytes as a first indication of a response towards the tested compounds. The beating rate of a individual cluster per plate has been recorded before, 15 min after application of the stimulus and after 4h incubation. FIG. 3 summarizes the data of such an analysis using cardiomyocytes 25 days after start of differentiation. […] Due to the low starting beating frequency in some cases the x-fold increase is quite high. Nevertheless these elevated beating frequencies where still in the physiological range. […]

CT-1 promoter = assay: CT1-promoter luciferase reporter activity in ES cell-derived cardiomyocytes; format: cell-based, mouse; settings: 0.1 μM, incubation for 4h, corrected for total protein
Procedure: Gated cardiomyocytes where cultivated in 6 cm tissue culture dishes. Fresh medium was supplemented with the test compound in concentrations ranging from 0.01-10 μM. For heat shock treatment the cells where incubated at 42° C. for 30 min. Mock treated cells served as control. […] After 4h of incubation the cells where washed with PBS, collected in reporter lysis buffer (RLB, Promega) and stored at −80° C. The Luciferase-activity in the thawed lysates was measured by flash-light Luciferase assay (Promega). In order to quantify Luciferase-activity a serial diluted recombinant Luciferase standard was analyzed in parallel. Values for Luciferase-activity where correct for the amount of total protein in the lysates measured by BCA-assay (Pierce). The transcriptional activity of the CT1-promoter was analyzed by measurement of Luciferase activity in the cellular lysates.

[2] = system: cardiomyocyte nuclei in the ventricular septum; design: species or system mice; settings: mouse, in vivo, 7 days
Procedure: Cryosections (10 μm) were generated using standard histologic techniques. For ISEL analysis, cryosections were processed using the Oncogene Research KLENOW-FragEL DNA Fragmentation Detection Kit. Signal was developed with biotinylated nucleotides and horseradish peroxidase (HRP) conjugated streptavidin (Roche Molecular Biochemicals). Signal was generated by incubation with diaminobenzidine using standard techniques. Beta-galactosidase activity was detected in the same sections via X-GAL staining as described (Soonpaa M. H. et al. (1994) Science 264: 98-101).
Isoproterenol is a beta-adrenergic agonist that induces cardiomyocyte hypertrophy both in vitro and in vivo. Prolonged exposure to isoproterenol is cardiotoxic, inducing cardiomyocyte apoptosis via a mechanism similar to that encountered during the progression of heart failure. The MHC-1152stp mice were tested to determine if transgene expression was cardioprotective during isoproterenol infusion, and specifically to see if 1152stp expression could antagonize isoproterenol-induced cardiomyocyte apoptosis. […]
Mice with a MHC-1152stp/MHC-nLAC genotype and a (−)/MHC-nLAC genotype were culled, and at 12 weeks of age were implanted with isoproterenol-filled osmotic mini-pumps, as described in several studies from our group (Soonpaa M. H. and Field L. J. (1994) American Journal of Physiology 266 (Heart and Circulatory Physiology 35): H1439-1445; Pasumarthi K. B., Nakajima H., Nakajima H. O., Jing S., Field L. J. (2000) Circ Res. 86: 1069-1077). […] Cardiomyocyte apoptosis was then calculated simply by determining the incidence of black HRP signal over blue nuclear staining; these analyses focused on cardiomyocytes residing in the ventricular septum, where the cardiotoxic effects of isoproterenol appear to be most pronounced. […]

[3] = MHC-nLAC transgenic ((−)/MHC-nLAC genotype)

CN(C)CCCN1c2ccccc2CCc2ccccc21 [imipramine]
change in beating frequency ([1]; 0.1 μM): increase in beating frequencies | increase of CT1-promoter activity (Luciferase activity) compared to the untreated control (CT-1 promoter): more than 2 fold

CC(C)NCC(O)c1ccc(O)c(O)c1 (stereo not shown) [isoproterenol]
% ISEL Positive ([2]; (−)/MHC-nLAC transgenic): ~0.1% | % ISEL Positive [2, 3]: 0.098% | ISEL Positive CM Nuclei [2, 3]: 35 of 35604

NC[C@H](O)c1ccc(O)c(O)c1 [noradrenaline]
change in beating frequency ([1]; recorded before, 15 min and 4h after application, 0.01-10 μM): dose dependent increase | increase of CT1-promoter activity (Luciferase activity) compared to the untreated control (CT-1 promoter): 1.73 fold
